System: T47D (PIK3CA H1047R) cells
Experiment: pS473 AKT assay with 2.5% FBS, T47D cells
Assay type: cell-based
Details: Homo sapiens, pSer473 AKT, DMEM with 2.5% FBS, 2 h treatment, read-out: T47D_IC50
Summary of the method: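 In-cell chemiluminescent ELISA of AKT Ser473 phosphorylation, using anti-pSer473 primary and HRP secondary antibodies on fixed cells. T47D (PIK3CA H1047R) cells had 2 h of compound treatment in DMEM containing 2.5% FBS; IC50 derived from dose-response.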

Compound | IC50 [µM]
Cc1cc(C(C)Nc2ccc(Cl)nc2-c2cnn(C3CCN(C(=O)N(C)C)CC3)c2)c2c(c1)c(=O)n1c3c2cnn3CCC1 (stereo not shown) [Compound 305, 4-(4-(6-chloro-3-((1-(8-methyl-6-oxo-4,5-dihydro-3H,6H-2,2a,5a-triazaaceanthrylen-10-yl)ethyl)amino)pyridin-2-yl)-1H-pyrazol-1-yl)-N,N-dimethylpiperidine-1-carboxamide] | < 1
CNC(=O)c1ccc(-c2nc(Cl)ccc2NC(C)c2cc(C)cc3c(=O)n4c5c(cnn5CCC4)c23)cc1F (stereo not shown) [Compound 309, 4-(6-chloro-3-((1-(8-methyl-6-oxo-4,5-dihydro-3H,6H-2,2a,5a-triazaaceanthrylen-10-yl)ethyl)amino)pyridin-2-yl)-2-fluoro-N-methylbenzamide] | < 1
Cc1cc(C(C)Nc2ccc(Cl)nc2-c2ccc3c(c2)CN(C)C3=O)c2c(c1)c(=O)n1c3c2cnn3CCC1 (stereo not shown) [Compound 314, 10-(1-((6-chloro-2-(2-methyl-1-oxoisoindolin-5-yl)pyridin-3-yl)amino)ethyl)-8-methyl-4,5-dihydro-3H,6H-2,2a,5a-triazaaceanthrylen-6-one] | < 1
Cc1cc(C(C)Nc2ccc(Cl)nc2-c2ccc3ncccc3c2)c2c(c1)c(=O)n1c3c2cnn3CCC1 (stereo not shown) [Compound 315, 10-(1-((6-chloro-2-(quinolin-6-yl)pyridin-3-yl)amino)ethyl)-8-methyl-4,5-dihydro-3H,6H-2,2a,5a-triazaaceanthrylen-6-one] | < 1
Cc1cc(C(C)Nc2ccc(Cl)nc2-c2ccc3c(cnn3C)c2)c2c(c1)c(=O)n1c3c2cnn3CCC1 (stereo not shown) [Compound 316, 10-(1-((6-chloro-2-(1-methyl-1H-indazol-5-yl)pyridin-3-yl)amino)ethyl)-8-methyl-4,5-dihydro-3H,6H-2,2a,5a-triazaaceanthrylen-6-one] | < 1
CNC(=O)c1ccc(-c2nc(C)ccc2NC(C)c2cc(C)cc3c(=O)n4c5c(cnn5CCC4)c23)cc1F (stereo not shown) [Compound 317, 2-fluoro-N-methyl-4-(6-methyl-3-((1-(8-methyl-6-oxo-4,5-dihydro-3H,6H-2,2a,5a-triazaaceanthrylen-10-yl)ethyl)amino)pyridin-2-yl)benzamide] | < 1
Cc1cc(C(C)Nc2ccc(C)nc2-c2cnn(C3CCOCC3)c2)c2c(c1)c(=O)n1c3c2cnn3CCC1 (stereo not shown) [Compound 318, 8-methyl-10-(1-((6-methyl-2-(1-(tetrahydro-2H-pyran-4-yl)-1H-pyrazol-4-yl)pyridin-3-yl)amino)ethyl)-4,5-dihydro-3H,6H-2,2a,5a-triazaaceanthrylen-6-one] | < 1
Cc1cc(C(C)Nc2ccc(C)nc2-c2cnn(CCO)c2)c2c(c1)c(=O)n1c3c2cnn3CCC1 (stereo not shown) [Compound 319, 10-(1-((2-(1-(2-hydroxyethyl)-1H-pyrazol-4-yl)-6-methylpyridin-3-yl)amino)ethyl)-8-methyl-4,5-dihydro-3H,6H-2,2a,5a-triazaaceanthrylen-6-one] | < 1
Cc1cc(C(C)Nc2ccc(C)nc2-c2ccnc(C)c2)c2c(c1)c(=O)n1c3c2cnn3CCC1 (stereo not shown) [Compound 320, 10-(1-((2′,6-dimethyl-[2,4′-bipyridin]-3-yl)amino)ethyl)-8-methyl-4,5-dihydro-3H,6H-2,2a,5a-triazaaceanthrylen-6-one] | < 1
Cc1cc(C(C)Nc2ccc(C)nc2-c2cnn(C3CC3)c2)c2c(c1)c(=O)n1c3c2cnn3CCC1 (stereo not shown) [Compound 321, 10-(1-((2-(1-cyclopropyl-1H-pyrazol-4-yl)-6-methylpyridin-3-yl)amino)ethyl)-8-methyl-4,5-dihydro-3H,6H-2,2a,5a-triazaaceanthrylen-6-one] | < 1
Cc1cc(C(C)Nc2ccc(Cl)nc2N2CCN3C(=O)OCC3C2)c2c(c1)c(=O)n1c3c2cnn3CCC1 (stereo not shown) [Compound 322, 7-(6-chloro-3-((1-(8-methyl-6-oxo-4,5-dihydro-3H,6H-2,2a,5a-triazaaceanthrylen-10-yl)ethyl)amino)pyridin-2-yl)hexahydro-3H-oxazolo[3,4-a]pyrazin-3-one] | < 1
Cc1cc(C(C)Nc2ccc(Cl)nc2-c2cnn3c2CN(C)CC3)c2c(c1)c(=O)n1c3c2cnn3CCC1 (stereo not shown) [Compound 323, 10-(1-((6-Chloro-2-(5-methyl-4,5,6,7-tetrahydropyrazolo[1,5-a]pyrazin-3-yl)pyridin-3-yl)amino)ethyl)-8-methyl-4,5-dihydro-3H,6H-2,2a,5a-triazaaceanthrylen-6-one] | < 1
Cc1cc(C(C)Nc2ccc(C)nc2-c2noc(=O)[nH]2)c2c(c1)c(=O)n1c3c2cnn3C(C)CC1 (stereo not shown) [Compound 325, 3-(3-((1-(3,8-Dimethyl-6-oxo-4,5-dihydro-3H,6H-2,2a,5a-triazaaceanthrylen-10-yl)ethyl)amino)-6-methylpyridin-2-yl)-1,2,4-oxadiazol-5(4H)-one] | < 1
CCn1ncc2c3c(C(C)Nc4ccc(C)nc4-c4noc(=O)[nH]4)cc(C)cc3c(=O)n(C)c21 (stereo not shown) [Compound 327, 3-(3-((1-(3-Ethyl-4,7-dimethyl-5-oxo-4,5-dihydro-3H-pyrazolo[3,4-c]isoquinolin-9-yl)ethyl)amino)-6-methylpyridin-2-yl)-1,2,4-oxadiazol-5(4H)-one] | < 1

Other lines, results leading:

IC50 [µM] | Compound
< 1 | Cc1cc(C(C)Nc2ccc(Cl)nc2-c2cnn(C3CN(C)C3)c2)c2c(c1)c(=O)n1c3c2cnn3CCC1 (stereo not shown) [Compound 304, 10-(1-((6-chloro-2-(1-(1-methylazetidin-3-yl)-1H-pyrazol-4-yl)pyridin-3-yl)amino)ethyl)-8-methyl-4,5-dihydro-3H,6H-2,2a,5a-triazaaceanthrylen-6-one]
< 1 | Cc1cc(C(C)Nc2ccc(Cl)nc2-c2ccnc(C)c2)c2c(c1)c(=O)n1c3c2cnn3CCC1 (stereo not shown) [Compound 306, 10-(1-((6-chloro-2′-methyl-[2,4′-bipyridin]-3-yl)amino)ethyl)-8-methyl-4,5-dihydro-3H,6H-2,2a,5a-triazaaceanthrylen-6-one]
< 1 | Cc1cc(C(C)Nc2ccc(Cl)nc2-c2cccnc2)c2c(c1)c(=O)n1c3c2cnn3CCC1 (stereo not shown) [Compound 307, 10-(1-((6-chloro-[2,3′-bipyridin]-3-yl)amino)ethyl)-8-methyl-4,5-dihydro-3H,6H-2,2a,5a-triazaaceanthrylen-6-one]
< 1 | Cc1cc(C(C)Nc2ccc(Cl)nc2-c2ccc(=O)n(C)c2)c2c(c1)c(=O)n1c3c2cnn3CCC1 (stereo not shown) [Compound 308, 10-(1-((6-chloro-1′-methyl-6′-oxo-1′,6′-dihydro-[2,3′-pyridin]-3-yl)amino)ethyl)-8-methyl-4,5-dihydro-3H,6H-2,2a,5a-triazaaceanthrylen-6-one]
< 1 | CNC(=O)c1ccc(-c2nc(Cl)ccc2NC(C)c2cc(C)cc3c(=O)n4c5c(cnn5CCC4)c23)cn1 (stereo not shown) [Compound 310, 6-chloro-N-methyl-3-((1-(8-methyl-6-oxo-4,5-dihydro-3H,6H-2,2a,5a-triazaaceanthrylen-10-yl)ethyl)amino)-[2,3′-bipyridine]-6′-carboxamide]
< 1 | COc1ccc(-c2nc(Cl)ccc2NC(C)c2cc(C)cc3c(=O)n4c5c(cnn5CCC4)c23)cn1 (stereo not shown) [Compound 311, 10-(1-((6-chloro-6′-methoxy-[2,3′-bipyridin]-3-yl)amino)ethyl)-8-methyl-4,5-dihydro-3H,6H-2,2a,5a-triazaaceanthrylen-6-one]
< 1 | COc1cc(-c2nc(Cl)ccc2NC(C)c2cc(C)cc3c(=O)n4c5c(cnn5CCC4)c23)ccn1 (stereo not shown) [Compound 312, 10-(1-((6-chloro-2′-methoxy-[2,4′-bipyridin]-3-yl)amino)ethyl)-8-methyl-4,5-dihydro-3H,6H-2,2a,5a-triazaaceanthrylen-6-one]
< 1 | Cc1cc(C(C)Nc2ccc(Cl)nc2-c2ccnc(N(C)C)c2)c2c(c1)c(=O)n1c3c2cnn3CCC1 (stereo not shown) [Compound 313, 10-(1-((6-chloro-2′-(dimethylamino)-[2,4′-bipyridin]-3-yl)amino)ethyl)-8-methyl-4,5-dihydro-3H,6H-2,2a,5a-triazaaceanthrylen-6-one]
< 1 | Cc1cc(C(C)Nc2ccc(Cl)nc2-c2ccc(CN(C)C)nc2)c2c(c1)c(=O)n1c3c2cnn3CCC1 (stereo not shown) [Compound 324, 10-(1-((6-Chloro-6′-((dimethylamino)methyl)-[2,3′-bipyridin]-3-yl)amino)ethyl)-8-methyl-4,5-dihydro-3H,6H-2,2a,5a-triazaaceanthrylen-6-one]
< 1 | Cc1cc(C(C)Nc2ccc(C)nc2-c2nnn(C)n2)c2c(c1)c(=O)n1c3c2cnn3CCC1 (stereo not shown) [Compound 326, 8-Methyl-10-(1-((6-methyl-2-(2-methyl-2H-tetrazol-5-yl)pyridin-3-yl)amino)ethyl)-4,5-dihydro-3H,6H-2,2a,5a-triazaaceanthrylen-6-one]
< 1 | Cc1cc(C(CO)Nc2ccc(Cl)nc2-c2ncn(C)n2)c2c(c1)c(=O)n1c3c2cnn3CCC1 (stereo not shown) [Compound 328, 10-(1-((6-Chloro-2-(1-methyl-1H-1,2,4-triazol-3-yl)pyridin-3-yl)amino)-2-hydroxyethyl)-8-methyl-4,5-dihydro-3H,6H-2,2a,5a-triazaaceanthrylen-6-one]
< 1 | Cc1cc(C(CO)Nc2ccc(Cl)nc2-c2cnn(C)c2)c2c(c1)c(=O)n1c3c2cnn3CCC1 (stereo not shown) [Compound 329, 10-(1-((6-chloro-2-(1-methyl-1H-pyrazol-4-yl)pyridin-3-yl)amino)-2-hydroxyethyl)-8-methyl-4,5-dihydro-3H,6H-2,2a,5a-triazaaceanthrylen-6-one]
< 1 | Cc1cc(C(CO)Nc2ccc(Cl)nc2-c2cnn(C)c2C)c2c(c1)c(=O)n1c3c2cnn3CCC1 (stereo not shown) [Compound 330, 10-(1-((6-chloro-2-(1,5-dimethyl-1H-pyrazol-4-yl)pyridin-3-yl)amino)-2-hydroxyethyl)-8-methyl-4,5-dihydro-3H,6H-2,2a,5a-triazaaceanthrylen-6-one]
< 1 | Cc1cc(C(CO)Nc2ccc(Cl)nc2-c2nnco2)c2c(c1)c(=O)n1c3c2cnn3CCC1 (stereo not shown) [Compound 331, 10-(1-((6-chloro-2-(1,3,4-oxadiazol-2-yl)pyridin-3-yl)amino)-2-hydroxyethyl)-8-methyl-4,5-dihydro-3H,6H-2,2a,5a-triazaaceanthrylen-6-one]

— US20250270213A1, “PI3Ka INHIBITORS” (Synnovation Therapeutics, Inc., priority 2022, published 2025)
